PubChem BioAssay (NCI)
Where “and” joins values, the source holds several entries; their conditions need not be identical. Identical values can stand only once.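 Results reflect a 48-hour exposure of cells in 96-well plates to compound at five concentrations. At the GI50, growth is halved. Definition used: TGI = concentration required for complete inhibition of growth.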

Tested on: HCT-116 colon
Experiment: DTP human tumour cell line panel, 48 h

Row | SMILES | GI50 [µM] | TGI [µM]
1 | COC(=O)[C@@]12OC[C@]34[C@H]([C@@H](O)[C@@H]1O)[C@@]1(C)[C@H](O)C(=O)C=C(C)[C@@H]1C[C@H]3OC(=O)C(OC(C)=O)[C@@H]24 (some centres undefined) | 0.022 | 0.0503

Tested on: SNB-75 CNS
Experiment: DTP human tumour cell line panel, 48 h

Row | SMILES | GI50 [µM] | TGI
2 | N.N.N.N.N.[Cl-].[Co+3].c1ccc(-c2nn[n-]n2)cc1 | > 100 | > 100 µM
3 | COc1cccc2c1C(=O)c1c(O)c3c(c(O)c1C2=O)CC(O)(C(O)CO)CC3OC1CC(N2CCOCC2)C(O)C(C)O1 (centres undefined) | – | 0.0131 µM and 0.0549 µM
4 | C1COCCN1.C1COCCN1.NC1CCCCC1N.[Cl-].[Pt+2] (centres undefined) | > 100 | > 100 µM
5 | C[C@]12CCC(=O)C=C1CC[C@@H]1C2CC[C@]2(C)Nc3c(cnn3-c3ccccc3)CC12 (some centres undefined) | – | > 100 µM
6 | O=C(NC(=O)c1cn(CCN(CCO)C(=O)NCCCCCCNC(=O)N(CCO)CCn2cc(C(=O)NC(=O)OCc3ccccc3)c(=O)[nH]c2=O)c(=O)[nH]c1=O)OCc1ccccc1 | – | > 100 µM
7 | CCOC1=C2C(=O)OC(=O)C2C2CCCCC2=C1 (centres undefined) | – | > 100 µM
8 | Cc1cc2c(C)nn(Cc3ccccc3)c2c(C(N)=O)c1C | – | 58.8 µM
9 | C=CCNC(=O)N(CCCC(NC(C)=O)C(=O)NCc1ccccc1)Cc1ccccc1 (centres undefined) | – | > 100 µM
10 | c1ccc(C(c2ccccc2)c2cccnc2)cc1 | – | > 100 µM
11 | C1=CC=C2NCCCCCCCNC3=CC=CC=CC3=NCCCCCCCN=C2C=C1 | – | 67.9 µM
12 | COC(=O)/C(=N\NC(=O)C[N+](C)(C)C)C(C(=O)OC)C(=O)C(=O)Nc1ccccc1C(N)=O (centres undefined) | – | > 100 µM
13 | CC1CN(c2ccc(Cl)cc2)CC(C)OC(=O)O1 (centres undefined) | – | > 100 µM
14 | O=c1ccn(C2CC(O)C(CO)O2)c(=O)[nH]1 (centres undefined) | > 5000 | > 5000 µM
15 | OCC1C(/C=C/c2ccoc2)ON2CCCC12 (centres undefined) | – | > 100 µM
16 | O=C(N/C(=C/c1ccc(Cl)cc1Cl)c1nc2ccccc2s1)c1ccccc1 | – | 34.4 µM
17 | COc1c(O)cc2oc(-c3ccc(O)cc3)cc(=O)c2c1O | – | 58.2 µM
18 | COc1cccc(-c2nn(-c3ccccc3)cc2-c2ccnc(NCCCNC(=O)Nc3ccc(Cl)c(Cl)c3)c2)c1 | 2.52 | 19.2 µM

Row | SMILES | GI50 [µM] | TGI
19 | COc1cc2ccccc2oc1=O | – | > 100 µM
20 | Nc1nc(N)c2nc(CNc3ccc(C(=O)NC(CC(=O)O)C(=O)O)cc3)cnc2n1 (centres undefined) | 22.2 | > 100 µM
21 | O=C1c2cccc(NCCN=Cc3cc([N+](=O)[O-])ccc3O)c2C(=O)c2c(NCCN=Cc3cc([N+](=O)[O-])ccc3O)cccc21 | 2.16 | 19 µM
22 | CC(=O)OC[C@]12CC[C@@H](C(=O)CBr)[C@@H]1[C@H]1CC[C@@H]3[C@@]4(C)CCCNC(C)(C)[C@@H]4CC[C@@]3(C)[C@]1(C)CC2 | 15.4 | 32.8 µM
23 | COc1cc2c3c(n(CCCCN)c(=O)c2cc1OC)-c1cc2c(cc1C3=O)OCO2 | 0.778 | 5.5 µM
24 | Cc1cc(NCCCCCCNc2cc(C)nc3cc(N(C)C)ccc23)c2ccc(N(C)C)cc2n1 | – | > 100 µM
25 | N#CCCN(CCCN(CCCN(C(=O)Nc1ccccc1)c1ccccc1)C(=O)Nc1ccccc1)C(=O)Nc1ccccc1 | 59.5 | > 100 µM
26 | C=CCC1(O)c2ccccc2C(=O)c2c(NCCN(CC(=O)OCC)CC(=O)OCC)cccc21 (centres undefined) | > 100 | > 100 µM
27 | Cc1ccc([N+](=O)[O-])cc1NC(=O)/C(=N/NC(=S)NN)C1SC(=S)NC1=O (centres undefined) | – | > 100 µM
28 | COc1cccc(-n2nc(C)c3c(N/N=C(\C)c4ccncc4)ncnc32)c1 | > 9.22 | > 25 µM
29 | Cc1ccc(-c2nc(C#N)c(S(=O)(=O)n3nc(C)cc3N)o2)cc1 | 13.7 | 27.1 µM
30 | COc1cccc2c1ccc1nc3cccc(C(=O)N[C@H](C)CN(C)C)c3nc12 | 0.205 | 1.16 µM
31 | NC(=O)c1ccc(I)c(N=O)c1 | 19.9 | 69.4 µM
32 | COc1ccc2c(=O)cc(-c3ccncc3)oc2c1OC | – | 41 µM
33 | O=C(O)c1cc2ccc3ccccc3c2oc1=O | – | > 100 µM
34 | O=[N+]([O-])c1ccc2c(c1)Cc1cc(N=Cc3ccc4c(c3)OCO4)ccc1-2 | – | > 100 µM
35 | COC(=O)[C@@]12OC[C@]34[C@H]([C@@H](O)[C@@H]1O)[C@@]1(C)[C@H](O)C(=O)C=C(C)[C@@H]1C[C@H]3OC(=O)C(OC(C)=O)[C@@H]24 (some centres undefined) | 0.0273 | 0.121 µM

Tested on: KM20L2 colon
Experiment: DTP human tumour cell line panel, 48 h

Row | SMILES | GI50 [µM] | TGI [µM]
36 | N.N.N.N.N.[Cl-].[Co+3].c1ccc(-c2nn[n-]n2)cc1 | > 100 | > 100
37 | COc1cccc2c1C(=O)c1c(O)c3c(c(O)c1C2=O)CC(O)(C(O)CO)CC3OC1CC(N2CCOCC2)C(O)C(C)O1 (centres undefined) | – | 0.0943
